Assays:
[1] = test system: HT-29; assay: Cytotoxicity against human HT-29 cells assessed as reduction of cell viability measured after 16 hrs by crystal violet staining assay; type: functional, cell-based
[2] = test system: Trypanosoma cruzi; assay: Antiprotozoal activity against Trypanosoma cruzi Tulahuen C4 amastigotes infected in rat L6 cells assessed as growth inhibition after 96 by photometric analysis; type: functional, organism-based
[3] = test system: L6; assay: Cytotoxicity against rat L6 cells assessed as reduction in cell viability after 72 hrs by Alamar blue dye-based fluorometric analysis
[4] = test system: HT-1080; assay: Cytotoxicity against human HT1080 cells assessed as reduction of cell viability measured after 16 hrs by crystal violet staining assay; type: functional, cell-based; conditions: HT-1080, 16 h
[5] = test system: Leishmania donovani; assay: Antiprotozoal activity against Leishmania donovani MHOM/ET/67/L82 axenic amastigotes assessed as growth inhibition after 72 hrs by Alamar Blue dye-based fluorometric analysis; type: functional, organism-based
[6] = test system: Trypanosoma brucei rhodesiense; assay: Antiprotozoal activity against Trypanosoma brucei rhodesiense STIB900 trypomastigotes assessed as growth inhibition after 72 hrs by Alamar Blue dye-based fluorometric analysis; type: functional, organism-based
[7] = test system: MM1.S; assay: Cytotoxicity against human MM1S cells assessed as reduction of cell viability incubated for overnight by MTT assay; type: functional, cell-based
[8] = Selectivity index, ratio of IC50 for cytotoxicity against rat L6 cells to IC50 for antiprotozoal activity against Plasmodium falciparum NF54; type: toxicity, cell-based
[9] = test system: Plasmodium falciparum; assay: Antiprotozoal activity against chloroquine-sensitive Plasmodium falciparum NF54 assessed as growth inhibition incubated for 48 hrs by [3H]-hypoxanthine incorporation assay; type: functional, organism-based
[10] = test system: Plasmodium falciparum; assay: Antiprotozoal activity against asexual erythrocytic form of chloroquine-sensitive Plasmodium falciparum NF54 clone A1A9 assessed as growth inhibition incubated for 42 hrs by [3H]-hypoxanthine incorporation assay; type: functional, organism-based
[11] = Trypanosoma cruzi, Tulahuen C4, L6
[12] = Leishmania donovani, MHOM/ET/67/L82, 72 h

Row | IC50 [2] [µM] | IC50 [6] [µM] | Structure (SMILES) | IC50 [3] [µM] | Ratio IC50 [8] | IC50 [9] [µM] | other results
1 | 13.7 | 0.82 | COc1cccc2c(-c3ccc4c(c3O)[C@@H](C)N[C@H](C)C4)c(C)c(-c3c(C)c(-c4ccc5c(c4O)[C@@H](C)N[C@H](C)C5)c4cccc(OC)c4c3O)c(O)c12 (stereo in doubt; 1d) [listing 1 of 2 here] | 15.9 | 11400 | – | IC50 ([1]; read-out: IC50): 12 µM; IC50 [4]: 9 µM; IC50 [5]: 80.2 µM; IC50 [7]: 5 µM
2 | 17.1 | 0.32 | COc1cccc2c(-c3ccc4c(c3O)[C@@H](C)N[C@H](C)C4)c(C)c(-c3c(C)c(-c4ccc5c(c4O)[C@@H](C)N[C@H](C)C5)c4cccc(OC)c4c3O)c(O)c12 (stereo in doubt; 1b) | 4.3 | 206 | 0.021 | –
3 | – | – | COc1cc(O)c(-c2c(C)cc(OC)c3c(OC)cccc23)c2c1[C@H](C)N[C@H](C)C2 | – | – | – | IC50 [1]: Not Active
4 | – | – | COc1cccc2c(-c3ccc4c(c3O)[C@@H](C)N(C)[C@@H](C)C4)c(C)cc(OC)c12 | – | – | – | IC50 [1]: Not Active
5 | – | – | COc1cccc2c(-c3ccc4c(c3O)[C@@H](C)N[C@H](C)C4)c(C)cc(O)c12 (stereo in doubt; 4a) | 9.1 | 13.7 | – | IC50 [2, 11]: 24.4 µM; IC50 [5, 12]: > 100 µM; IC50 ([9]; Plasmodium falciparum, NF54): 0.67 µM; IC50 ([6]; Trypanosoma brucei, STIB900, 72 h): 6.1 µM
6 | – | – | COc1cccc2c(-c3ccc4c(c3O)[C@@H](C)N[C@H](C)C4)c(C)c(-c3c(C)c(-c4ccc5c(c4O)[C@@H](C)N[C@H](C)C5)c4cccc(OC)c4c3O)c(O)c12 (stereo in doubt; 1d) [listing 2 of 2 here] | – | – | – | inhibition [1]: Dose-dependent effect
7 | – | – | CCCCCCCCCCCCCCCCOP(=O)([O-])OCC[N+](C)(C)C [MILTEFOSINE] | – | – | – | IC50 [5, 12]: 0.8 µM
8 | – | – | O=C(Cn1ccnc1[N+](=O)[O-])NCc1ccccc1 [BENZNIDAZOLE] | – | – | – | IC50 [2, 11]: 2.6 µM
9 | – | – | COc1cccc2c(-c3ccc4c(c3O)[C@@H](C)N[C@H](C)C4)c(C)cc(OC)c12 [DIONCOPHYLLINE A] | – | – | – | IC50 [10]: 3.8 µM
10 | – | – | COc1cc(O)c2c(c1-c1c(C)cc(O)c3c(OC)cccc13)C[C@H](C)N[C@H]2C | – | – | – | IC50 [1]: Not Active
11 | 45.1 | 4.8 | COc1cccc2c(-c3ccc4c(c3O)[C@@H](C)N[C@H](C)C4)c(C)cc(O)c12 (stereo in doubt; 4b) | 44.8 | 52.7 | 0.85 | –
12 | 14.9 | 0.49 | COc1cccc2c(-c3ccc4c(c3O)[C@@H](C)N[C@H](C)C4)c(C)c(-c3c(C)c(-c4ccc5c(c4O)[C@@H](C)N[C@H](C)C5)c4cccc(OC)c4c3O)c(O)c12 (stereo in doubt; 1a) | 7.9 | 660 | 0.012 | IC50 ([1]; read-out: IC50): > 50 µM; IC50 [5, 12]: > 100 µM
13 | 8.1 | 0.16 | COc1cccc2c(-c3ccc4c(c3O)[C@@H](C)N[C@H](C)C4)c(C)c(-c3c(C)c(-c4ccc5c(c4O)[C@@H](C)N[C@H](C)C5)c4cccc(OC)c4c3O)c(O)c12 (stereo in doubt; 1c) | 2.3 | 41.6 | 0.055 | IC50 [5]: 65.2 µM

Source: ChEMBL document CHEMBL4334514, “A Near-Complete Series of Four Atropisomeric Jozimine A2-Type Naphthylisoquinoline Dimers with Antiplasmodial and Cytotoxic Activities and Related Alkaloids from Ancistrocladus abbreviatus” (J Nat Prod, 2019)
